{"source": "patent US8211646B1", "about": "“Methods of treating ovarian cancer by modulating SnoN” (University of South Florida, priority 2008, dated 2012)", "assay_type_in_all_cases": "cell-based", "key": {"[1]": {"tested_on": "EVI1 forms (MDS1/EVI1, EVI1, EVI1^Del190-515)", "details": "combination with As2O3; HEY, OVCA429", "description": "(§1) Proteins were resolved on an 8%, 12%, or 15% SDS-PAGE gel (as appropriate) and electrophoretically transferred to polyvinyldifluoride (PVDF) membranes. After blocking with 5% (w/v) milk in TBST (Tris-Buffered Saline containing 0.1% Tween-20) for one hour at room temperature, membranes were incubated with primary antibodies (at appropriate dilution) overnight at 4° C., followed by extensive washing and incubation for 1 hour with the appropriate horseradish peroxidase-conjugated secondary antibodies (BioRad, Hercules, Calif.). Blots were washed extensively. A rabbit polyclonal EVI1 antibody was obtained (1:3000 dilution, St. Jude's Children's Hospital, Memphis, Tenn.). SnoN rabbit polyclonal (1:1000 dilution), PML, and p21 SMURF2 rabbit polyclonal (1:500 dilution), MRP1 mouse monoclonal (1:500 dilution) and GAPDH mouse monoclonal (1:250 dilution) antibodies were obtained from Santa Cruz Biotechnology (Santa Cruz, Calif.). TGFβRII rabbit polyclonal (1:1000 dilution) antibody was obtained from Strategic Diagnostics (Newark, Del.). Smad2/3 rabbit polyclonal (1:1000 dilution), Beclin-1 rabbit polyclonal (1:1000 dilution), AKT rabbit polyclonal (1:1000 dilution), TAK1 rabbit polyclonal (1:1000 dilution), PARP rabbit polyclonal (1:1000 dilution), Beclin-1 rabbit polyclonal (1:1000 dilution), caspase-3 rabbit polyclonal (1:1000) which detects the pro-caspase form, and ATG5 rabbit polyclonal (1:1000 dilution), LC3-II rabbit polyclonal (1:1000 dilution) antibodies were obtained from Cell Signaling Technology (Danvers, Mass.). The HSP27 mouse monoclonal (1:1000 dilution) antibody was obtained from Stressgen (Ann Arbor, Mich.). Blots were developed using chemiluminescence substrates (Amersham Piscataway, N.J. or BioRad, Hercules, Calif.). Monoclonal PAI-1 antibody was obtained from BD Pharmingen. PSMAD2, total SMAD2/3, p-ERK, p-AKT, and total AKT antibodies were obtained from Cell Signaling Technology. A monoclonal antibody against Arkadia was obtained from Abnova (Taiwan).\n(§2) Densitometric analysis was performed using the HP Scanjet 5590 and the Image J program (Image Processing and Analysis in Java, NIH Image Software). Bands were selected and the intensity values were normalized to those for GAPDH. The values are presented as fold-changes relative to control siRNA treated cells.\n(§3) The clinical inhibitors As2O3, geldanamycin (17-AAG) (dissolved in dimethylsulfoxide [DMSO]), and MG132 (dissolved in DMSO) were obtained from Sigma-Aldrich (St. Louis, Mo.), Fisher Scientific (Pittsburgh, Pa.), and Alexis Biochemicals (Farmingdale, N.Y.), respectively. N-acetyl-L-cysteine (NAC; dissolved in media) and Bortezomib (PS-341; dissolved in DMSO) were obtained from Fisher Scientific. 3-Methyladenine (3-MA; dissolved in media) was obtained from MP Biomedicals (Solon, Ohio). Tiron (4,5-Dihydroxy-1,3-benzenedisulfonic acid, dissolved in media) was obtained from Fisher Scientific. zVAD-fmk (dissolved in DMSO) and bafilomycin A (dissolved in DMSO) was obtained from Axxora LLC (San Diego, Calif.). Bovine catalase was obtained from Sigma-Aldrich. HBED and Mn TBAP was obtained from ENZO Life Sciences (Farmingdale, N.Y.). Ovarian cells were plated in 6-well plates at 250,000 cells per well and grown in complete medium. The following day, the cells were treated with 5 μM MG132, As2O3 (between 2-50 μM), 17-AAG (between 2-50 μM), NAC (Fisher Scientific, between 25 μM to 1 mM), Tiron (between 25 μM to 1 mM), 3-MA (0.1 mM to 10 mM), or zVAD-fmk (25 μM to 100 μM). For control cells, DMSO (a final concentration of <0.5%) was added to compare appropriately to drugs dissolved in DMSO. After the appropriate incubation time (6 or 18 hours), cell lysates were collected, protein quantified, and SDS-PAGE/western analysis was performed. In addition, for selected studies, RNA was isolated, quantified, and used for qPCR analysis."}, "EVI1 and TGFβRII RNA": {"tested_on": "EVI1 and TGFβRII RNA", "experiment": "qPCR of EVI1 and TGFβRII RNA levels", "details": "5 μM MG132, 18 hours", "description": "RNA was isolated using the RNeasy Mini Kit (Qiagen, Valencia, Calif.) from normal, benign, stage I-IV ovarian patient samples and quantitative PCR was performed. A one-step RT-PCR Taqman master mix from Applied Biosystems (Foster City, Calif.) and primers for genes in the 3q26.2 amplicon were obtained using Genebank sequences as well as from Assays on Demand (Hs00180524_m1 (SnoN/SkiL)), with the following primers and probe sets.\nEVI1 Exon III—(detects both EVI1 and MDS1/EVI1):\nPrimers/probe sequences for SnoN (Hs00180524_m1), TGFβRII (Hs00234253_m1), and LC3 (Hs00261291_m1) were obtained from Applied Biosystems (Assays by Design).\nmRNA levels were determined using the One-Step-Plus Applied Biosystems Detection System or ABI PRISM 7700 Sequence Detection System using β-actin as a reference. […] 95° C. for 15 s followed by 60° C. for 1 min Using the correlative method, RNA-fold change in expression was calculated as Ct of gene—Ct of β-actin to generate ΔCt from which ΔCt of the normal sample was subtracted. […]\nThe clinical inhibitors As2O3, geldanamycin (17-AAG) (dissolved in dimethylsulfoxide [DMSO]), and MG132 (dissolved in DMSO) were obtained from Sigma-Aldrich (St. Louis, Mo.), Fisher Scientific (Pittsburgh, Pa.), and Alexis Biochemicals (Farmingdale, N.Y.), respectively. […] In addition, for selected studies, RNA was isolated, quantified, and used for qPCR analysis."}, "SnoN": {"tested_on": "SnoN", "experiment": "Western analysis of SnoN protein levels", "design": "SnoN basal protein levels: dose or concentration left out as unconfirmed", "description": "as §1, §2\nas §3, with “The following day, the cells were treated with 5 μM MG132, As2O3 (between 2-50 μM), 17-AAG (between 2-50 μM), NAC (Fisher Scientific, between 25 μM to 1 mM), Tiron (between 25 μM to 1 mM), 3-MA (0.1 mM to 10 mM), or zVAD-fmk (25 μM to 100 μM).” left out"}, "[2]": {"tested_on": "TAK1, SMAD2/3, TGFβRII, AKT, phospho-SMAD2", "experiment": "Western analysis of other TGFβ signaling mediators", "description": "as §1, §2, §3"}}, "note": "Peptide text beside a SMILES is read from it. * marks the point of attachment. Cbz = O=C(OCc1ccccc1)*", "data": [{"molecule": "CC(C)C[C@@H](C=O)NC(=O)[C@H](CC(C)C)NC(=O)[C@H](CC(C)C)NC(=O)OCc1ccccc1", "note": "[MG132] (Cbz-Leu-Leu-Leu-aldehyde)", "values": [{"measurement": "EVI1 protein in As2O3-treated cells with added proteosome inhibitor", "setting": "[1]", "result": "recovered"}, {"measurement": "EVI1 and TGFβRII RNA levels", "setting": "EVI1 and TGFβRII RNA", "result": "markedly reduce"}, {"measurement": "SnoN basal protein levels", "setting": "SnoN; MG132, HEY and OVCA429, threshold between 3 and 6 h", "result": "marked increase"}, {"measurement": "SnoN protein in drug-treated cells with added proteosome inhibitor", "setting": "SnoN; combination with As2O3", "result": "further increased"}, {"measurement": "AKT, SMAD2/3, and TGFβRII protein levels", "setting": "[2]; MG132 at 18 hours", "result": "significantly decreased"}, {"measurement": "TGFβRII protein in drug-treated cells with added proteosome inhibitor", "setting": "[2]; combination with As2O3 (MG132: 6 hour drug treatment)", "result": "recovered"}]}]}
